According to the supplement of paper PMC10307832:

Legend:
Experiment in all cases: relative viability (nuclei count vs DMSO), 5 days (fraction); higher = more cells survive
CAL-12T = system: CAL-12T
Method in brief: (§1)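 Values are medians from duplicate plates. Each reflects relative viability, defined as the nuclei count of treated wells over that of vehicle wells. Lung cancer cell lines in 1536-well plates were pin-tool dosed one day after seeding with one drug alone or with a fixed anchor-drug dose plus five library-drug doses (not always all listed) in √10 steps, then fixed, stained and imaged at 4× after 5 days.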

ChaGo-K-1 = system: ChaGo-K-1
Method in brief: as §1

HCC-366 = system: HCC-366
Method in brief: as §1

HCC-78 = system: HCC-78
Method in brief: as §1

LC-2-ad = system: LC-2-ad
Method in brief: as §1

LOU-NH91 = system: LOU-NH91
Method in brief: as §1

LU99A = system: LU99A
Method in brief: as §1

NCI-H1395 = system: NCI-H1395
Method in brief: as §1

NCI-H1651 = system: NCI-H1651
Method in brief: as §1

NCI-H1734 = system: NCI-H1734
Method in brief: as §1

NCI-H1755 = system: NCI-H1755
Method in brief: as §1

NCI-H1793 = system: NCI-H1793
Method in brief: as §1

NCI-H1944 = system: NCI-H1944
Method in brief: as §1

NCI-H2087 = system: NCI-H2087
Method in brief: as §1

NCI-H2170 = system: NCI-H2170
Method in brief: as §1

NCI-H2228 = system: NCI-H2228
Method in brief: as §1

NCI-H2405 = system: NCI-H2405
Method in brief: as §1

NCI-H3122 = system: NCI-H3122
Method in brief: as §1

NCI-H460 = system: NCI-H460
Method in brief: as §1

PC-3 [JPC-3] = system: PC-3 [JPC-3]
Method in brief: as §1

RERF-LC-KJ = system: RERF-LC-KJ
Method in brief: as §1

UMC-11 = system: UMC-11
Method in brief: as §1

With `O=C(O)c1ccc(-c2c[nH]c3ncc(-c4ccccc4)cc23)cc1C1CCCC1` + CC1(C)CCC(c2ccc(Cl)cc2)=C(CN2CCN(c3ccc(C(=O)NS(=O)(=O)c4ccc(N[C@H](CCN5CCOCC5)CSc5ccccc5)c(S(=O)(=O)C(F)(F)F)c4)cc3)CC2)C1 [Navitoclax] (partner 0.5 µM) the relative viability (CAL-12T; first compound 0.04 µM) was 1.26, the relative viability (CAL-12T; first compound 0.1265 µM) was 1.21 and the relative viability (CAL-12T; first compound 0.4 µM) was 1.11. The relative viability (CAL-12T; first compound 1.265 µM) was 1.05, the relative viability (ChaGo-K-1; first compound 0.04 µM) was 1.16 and the relative viability (ChaGo-K-1; first compound 0.1265 µM) was 1.3. For the same compound, the relative viability (ChaGo-K-1; first compound 0.4 µM) was 0.888, the relative viability (ChaGo-K-1; first compound 1.265 µM) was 1.32 and the relative viability (HCC-366; first compound 0.04 µM) was 0.993. It also gave a relative viability (HCC-366; first compound 0.1265 µM) of 1.2, a relative viability (HCC-366; first compound 0.4 µM) of 0.964 and a relative viability (HCC-366; first compound 1.265 µM) of 1.14. The relative viability (HCC-78; first compound 0.04 µM) was 0.849, the relative viability (HCC-78; first compound 0.1265 µM) was 0.904 and the relative viability (HCC-78; first compound 0.4 µM) was 0.802. For the same compound, the relative viability (HCC-78; first compound 1.265 µM) was 0.542, the relative viability (LC-2-ad; first compound 0.04 µM) was 0.399 and the relative viability (LC-2-ad; first compound 0.1265 µM) was 0.5. For the same compound, the relative viability (LC-2-ad; first compound 0.4 µM) was 0.415, the relative viability (LC-2-ad; first compound 1.265 µM) was 0.173 and the relative viability (LOU-NH91; first compound 0.04 µM) was 0.759. The relative viability (LOU-NH91; first compound 0.1265 µM) was 0.73, the relative viability (LOU-NH91; first compound 0.4 µM) was 0.68 and the relative viability (LOU-NH91; first compound 1.265 µM) was 0.541. For the same compound, the relative viability (LU99A; first compound 0.04 µM) was 0.818, the relative viability (LU99A; first compound 0.1265 µM) was 0.987 and the relative viability (LU99A; first compound 0.4 µM) was 0.735. For the same compound, the relative viability (LU99A; first compound 1.265 µM) was 0.721, the relative viability (NCI-H1395; first compound 0.04 µM) was 1.13 and the relative viability (NCI-H1395; first compound 0.1265 µM) was 1.05. It also gave a relative viability (NCI-H1395; first compound 0.4 µM) of 1.03, a relative viability (NCI-H1395; first compound 1.265 µM) of 0.915 and a relative viability (NCI-H1651; first compound 0.04 µM) of 0.926. For the same compound, the relative viability (NCI-H1651; first compound 0.1265 µM) was 0.995, the relative viability (NCI-H1651; first compound 0.4 µM) was 0.943 and the relative viability (NCI-H1651; first compound 1.265 µM) was 0.696. For the same compound, the relative viability (NCI-H1734; first compound 0.04 µM) was 0.706, the relative viability (NCI-H1734; first compound 0.1265 µM) was 0.916 and the relative viability (NCI-H1734; first compound 0.4 µM) was 0.878. It also gave a relative viability (NCI-H1734; first compound 1.265 µM) of 0.686, a relative viability (NCI-H1755; first compound 0.04 µM) of 0.98 and a relative viability (NCI-H1755; first compound 0.1265 µM) of 1.05. The relative viability (NCI-H1755; first compound 0.4 µM) was 1.03, the relative viability (NCI-H1755; first compound 1.265 µM) was 0.927 and the relative viability (NCI-H1793; first compound 0.04 µM) was 0.538. For the same compound, the relative viability (NCI-H1793; first compound 0.1265 µM) was 0.383, the relative viability (NCI-H1793; first compound 0.4 µM) was 0.494 and the relative viability (NCI-H1793; first compound 1.265 µM) was 0.286. The relative viability (NCI-H1944; first compound 0.04 µM) was 1.01, the relative viability (NCI-H1944; first compound 0.1265 µM) was 1.03 and the relative viability (NCI-H1944; first compound 0.4 µM) was 1.07. For the same compound, the relative viability (NCI-H1944; first compound 1.265 µM) was 0.932, the relative viability (NCI-H2087; first compound 0.04 µM) was 0.856 and the relative viability (NCI-H2087; first compound 0.1265 µM) was 1.03. The relative viability (NCI-H2087; first compound 0.4 µM) was 1.05, the relative viability (NCI-H2087; first compound 1.265 µM) was 0.857 and the relative viability (NCI-H2170; first compound 0.04 µM) was 0.605. The relative viability (NCI-H2170; first compound 0.1265 µM) was 0.64, the relative viability (NCI-H2170; first compound 0.4 µM) was 0.483 and the relative viability (NCI-H2170; first compound 1.265 µM) was 0.503. For the same compound, the relative viability (NCI-H2228; first compound 0.04 µM) was 0.927, the relative viability (NCI-H2228; first compound 0.1265 µM) was 0.778 and the relative viability (NCI-H2228; first compound 0.4 µM) was 0.98. It also gave a relative viability (NCI-H2228; first compound 1.265 µM) of 0.793, a relative viability (NCI-H2405; first compound 0.04 µM) of 0.944 and a relative viability (NCI-H2405; first compound 0.1265 µM) of 0.811. The relative viability (NCI-H2405; first compound 0.4 µM) was 0.864, the relative viability (NCI-H2405; first compound 1.265 µM) was 0.348 and the relative viability (NCI-H3122; first compound 0.04 µM) was 1.02. For the same compound, the relative viability (NCI-H3122; first compound 0.1265 µM) was 1, the relative viability (NCI-H3122; first compound 0.4 µM) was 1.03 and the relative viability (NCI-H3122; first compound 1.265 µM) was 0.976. It also gave a relative viability (NCI-H460; first compound 0.04 µM) of 1.08, a relative viability (NCI-H460; first compound 0.1265 µM) of 1.18 and a relative viability (NCI-H460; first compound 0.4 µM) of 1.14. The relative viability (NCI-H460; first compound 1.265 µM) was 0.962, the relative viability (PC-3 [JPC-3]; first compound 0.04 µM) was 0.817 and the relative viability (PC-3 [JPC-3]; first compound 0.1265 µM) was 0.886. It also gave a relative viability (PC-3 [JPC-3]; first compound 0.4 µM) of 0.7, a relative viability (PC-3 [JPC-3]; first compound 1.265 µM) of 0.564 and a relative viability (RERF-LC-KJ; first compound 0.04 µM) of 1.05. It also gave a relative viability (RERF-LC-KJ; first compound 0.1265 µM) of 1.24, a relative viability (RERF-LC-KJ; first compound 0.4 µM) of 0.842 and a relative viability (RERF-LC-KJ; first compound 1.265 µM) of 0.772. For the same compound, the relative viability (UMC-11; first compound 0.04 µM) was 0.318, the relative viability (UMC-11; first compound 0.1265 µM) was 0.299 and the relative viability (UMC-11; first compound 0.4 µM) was 0.328. It also gave a relative viability (UMC-11; first compound 1.265 µM) of 0.222.
